Data reported in patent US11912718B2, “Solid forms of a thienopyrimidinedione ACC inhibitor and methods for production thereof” (Gilead Apollo, LLC, priority 2016, dated 2024).

Tests used:
[1] = Study A: single oral dose pharmacokinetics in healthy subjects; assay type: in vivo, human; conditions: for AUC(0-t) / Tmax / AUC(0-inf) / Cmax / half-life: human, plasma, fasted; for AUC(0-t): po; for AUC(0-t) / AUC(0-inf) / Cmax / half-life: mean ± SD; for Tmax: Mean (Min, Max)
Method: Study A evaluated the safety and tolerability of 30, 80, 200, 500, 800, and 1000 mg in the fasted state and 200 mg following a high fat meal (fed state) to cohorts of 8 healthy subjects (6 active and 2 placebo control per group).
Table 12 summarizes PK parameters (mean) under fasted conditions of Study A. The reported factors may vary up to about 2%.

[2] = Study B: multiple oral dose pharmacokinetics, 10 days; assay type: in vivo, human; conditions: for AUC(0-inf) / Cmax / half-life / Tmax / AUC(0-t): human, in vivo, oral
Method: Study B (five (5) cohorts of 8 subjects (6 active and 2 placebo)) evaluated 50 mg twice daily (BID) (100 mg daily), 100 mg once daily (QD) (100 mg daily), 100 mg BID (200 mg daily), 200 mg QD (200 mg daily), or 150 mg QD (150 mg daily), or matching placebo. Subjects received multiple oral doses of Compound 1 or placebo for 9 consecutive days, with a single oral dose of Compound 1 or placebo on the morning of Day 10. Doses were administered approximately 30 minutes after meals.
Table 13 summarizes PK parameters of Study B after 10 days. The reported factors may vary up to about 2%.

[3] = 100 mg, 100 mg BID, Day 1, value available for one subject

## COc1ccccc1[C@H](Cn1c(=O)n(C(C)(C)C(=O)O)c(=O)c2c(C)c(-c3ncco3)sc21)OC1CCOCC1 [Compound 1, (R)-2-(1-(2-(2-methoxyphenyl)-2-((tetrahydro-2H-pyran-4-yl)oxy)ethyl)-5-methyl-6-(oxazol-2-yl)-2,4-dioxo-1,2-dihydrothieno[2,3-d]pyrimidin-3(4H)-yl)-2-methylpropanoic acid]
[1]; 200 mg, fed (high fat meal) versus fasted
  maximum plasma exposure (Cmax) lower under fed compared to fasted conditions: approximately 68%
[1]; 200 mg, fed and fasted conditions
  mean t1/2, CL/F, Vz/F and median tmax, fed versus fasted: comparable
[1]; 30 mg, single oral dose 30 mg, read-out: AUC0-t
  AUC(0-t): 176 ± 104 ng·h/mL
[1]; 80 mg, single oral dose 80 mg, read-out: AUC0-12
  AUC(0-t): 395 ± 198 ng·h/mL
[1]; 80 mg, single oral dose 80 mg, read-out: AUC0-t
  AUC(0-t): 363 ± 215 ng·h/mL
[1]; 200 mg, single oral dose 200 mg, read-out: AUC0-12
  AUC(0-t): 1000 ± 545 ng·h/mL
[1]; 200 mg, single oral dose 200 mg, read-out: AUC0-t
  AUC(0-t): 1210 ± 536 ng·h/mL
[1]; 500 mg, single oral dose 500 mg, read-out: AUC0-12
  AUC(0-t): 1240 ± 547 ng·h/mL
[1]; 500 mg, single oral dose 500 mg, read-out: AUC0-t
  AUC(0-t): 2930 ± 2440 ng·h/mL
[1]; 800 mg, single oral dose 800 mg, read-out: AUC0-t
  AUC(0-t): 6420 ± 3180 ng·h/mL
[1]; 1000 mg, single oral dose 1000 mg, read-out: AUC0-t
  AUC(0-t): 17400 ± 8400 ng·h/mL
[1]; single oral dose 30 mg
  Tmax: 1.3 h
  AUC(0-inf): 179 ± 115 ng·h/mL
  Cmax: 80 ± 66 ng/mL
  half-life: 4.5 ± 1.6 h
[1]; single oral dose 80 mg
  Tmax: 1.8 h
  AUC(0-inf): 402 ± 225 ng·h/mL
  Cmax: 101 ± 48 ng/mL
  half-life: 7 ± 2.8 h
[1]; single oral dose 200 mg
  Tmax: 1.9 h
  AUC(0-inf): 1250 ± 616 ng·h/mL
  Cmax: 416 ± 22 ng/mL
  half-life: 12 ± 1.4 h
[1]; single oral dose 500 mg
  Tmax: 1.9 h
  AUC(0-inf): 2960 ± 2460 ng·h/mL
  Cmax: 1110 ± 1150 ng/mL
  half-life: 10.2 ± 2.1 h
[1]; single oral dose 800 mg
  Tmax: 2.1 h
  AUC(0-inf): 6460 ± 3190 ng·h/mL
  Cmax: 2570 ± 1880 ng/mL
  half-life: 8.2 ± 3.3 h
[1]; single oral dose 1000 mg
  Tmax: 2.4 h
  AUC(0-inf): 17500 ± 8410 ng·h/mL
  Cmax: 8380 ± 3210 ng/mL
  half-life: 9.5 ± 2.6 h
[2]; 50 mg, 50 mg BID, Day 1
  AUC(0-inf): 178 ± 41 ng·h/mL
  Cmax: 41 ± 14 ng/mL
  half-life: 3.5 ± 1.6 h
[2]; 50 mg, 50 mg BID, Day 1, Mean (Min, Max)
  Tmax: 2.4 h
[2]; 50 mg, 50 mg BID, Day 1, read-out: AUC0-12
  AUC(0-t): 143 ± 29 ng·h/mL
[2]; 50 mg, 50 mg BID, Day 1, read-out: AUC0-t
  AUC(0-t): 143 ± 29 ng·h/mL
[2]; 50 mg, 50 mg BID, Day 10
  half-life: 10.3 ± 6.7 h
[2]; 50 mg, 50 mg BID, Day 10, read-out: AUC0-t
  AUC(0-t): 403 ± 104 ng·h/mL
[2]; 50 mg, 50 mg BID, Day 10 steady state
  Cmax: 49 ± 15 ng/mL
[2]; 50 mg, 50 mg BID, Day 10 steady state, Mean (Min, Max)
  Tmax: 4.5 h
[2]; 100 mg, 100 mg BID, Day 1
  Cmax: 61.6 ± 15 ng/mL
[2]; 100 mg, 100 mg BID, Day 1, Mean (Min, Max)
  Tmax: 5.2 h
[2]; 100 mg, 100 mg BID, Day 1, read-out: AUC0-12
  AUC(0-t): 345 ± 78 ng·h/mL
[2]; 100 mg, 100 mg BID, Day 1, read-out: AUC0-t
  AUC(0-t): 345 ± 77 ng·h/mL
[2]; [3]
  AUC(0-inf): 671 ng·h/mL
  half-life: 5.6 h
[2]; 100 mg, 100 mg BID, Day 10
  half-life: 6.8 ± 1.6 h
[2]; 100 mg, 100 mg BID, Day 10, read-out: AUC0-t
  AUC(0-t): 1120 ± 362 ng·h/mL
[2]; 100 mg, 100 mg BID, Day 10 steady state
  Cmax: 121 ± 56 ng/mL
[2]; 100 mg, 100 mg BID, Day 10 steady state, Mean (Min, Max)
  Tmax: 5.2 h
[2]; 100 mg, 100 mg QD, Day 1
  AUC(0-inf): 278 ± 110 ng·h/mL
  Cmax: 65 ± 32 ng/mL
  half-life: 4.3 ± 0.7 h
[2]; 100 mg, 100 mg QD, Day 1, read-out: AUC0-12
  AUC(0-t): 234 ± 86 ng·h/mL
[2]; 100 mg, 100 mg QD, Day 1, read-out: AUC0-t
  AUC(0-t): 268 ± 96 ng·h/mL
[2]; 100 mg, 100 mg QD, Day 10
  half-life: 7.9 ± 4.5 h
[2]; 100 mg, 100 mg QD, Day 10, read-out: AUC0-12
  AUC(0-t): 285 ± 115 ng·h/mL
[2]; 100 mg, 100 mg QD, Day 10, read-out: AUC0-t
  AUC(0-t): 400 ± 181 ng·h/mL
[2]; 100 mg, 100 mg QD, Day 10 steady state
  Cmax: 54 ± 22 ng/mL
[2]; 100 mg, 100 mg QD, Day 10 steady state, Mean (Min, Max)
  Tmax: 4.5 h
[2]; 150 mg, 150 mg QD, Day 1
  AUC(0-inf): 587 ± 254 ng·h/mL
  Cmax: 94 ± 40 ng/mL
  half-life: 3.9 ± 1.1 h
[2]; 150 mg, 150 mg QD, Day 1, Mean (Min, Max)
  Tmax: 3.3 h
[2]; 150 mg, 150 mg QD, Day 1, read-out: AUC0-12
  AUC(0-t): 489 ± 218 ng·h/mL
[2]; 150 mg, 150 mg QD, Day 1, read-out: AUC0-t
  AUC(0-t): 572 ± 247 ng·h/mL
[2]; 150 mg, 150 mg QD, Day 10
  half-life: 6.6 ± 2.8 h
[2]; 150 mg, 150 mg QD, Day 10, read-out: AUC0-12
  AUC(0-t): 637 ± 246 ng·h/mL
[2]; 150 mg, 150 mg QD, Day 10, read-out: AUC0-t
  AUC(0-t): 933 ± 424 ng·h/mL
[2]; 150 mg, 150 mg QD, Day 10 steady state
  Cmax: 111 ± 52 ng/mL
[2]; 150 mg, 150 mg QD, Day 10 steady state, Mean (Min, Max)
  Tmax: 6.5 h
[2]; 200 mg, 200 mg QD, Day 1
  AUC(0-inf): 979 ± 286 ng·h/mL
  Cmax: 152 ± 68 ng/mL
  half-life: 5.9 ± 3.6 h
[2]; 200 mg, 200 mg QD, Day 1, Mean (Min, Max)
  Tmax: 4.7 h
[2]; 200 mg, 200 mg QD, Day 1, read-out: AUC0-12
  AUC(0-t): 707 ± 191 ng·h/mL
[2]; 200 mg, 200 mg QD, Day 1, read-out: AUC0-t
  AUC(0-t): 868 ± 220 ng·h/mL
[2]; 200 mg, 200 mg QD, Day 10
  half-life: 5.9 ± 1 h
[2]; 200 mg, 200 mg QD, Day 10, read-out: AUC0-12
  AUC(0-t): 1220 ± 362 ng·h/mL
[2]; 200 mg, 200 mg QD, Day 10, read-out: AUC0-t
  AUC(0-t): 2050 ± 819 ng·h/mL
[2]; 200 mg, 200 mg QD, Day 10 steady state
  Cmax: 198 ± 87 ng/mL
[2]; 200 mg, 200 mg QD, Day 10 steady state, Mean (Min, Max)
  Tmax: 3.7 h
[2]; multiple dosing, all regimens
  change of maximal exposure (Cmax) from Day 1 to Day 10: generally increased
  increase of overall exposure (AUCt) on Day 10 compared to Day 1: 1.5-3.0 fold
  range of mean t1/2 independent of dose or regimen on each study day: ≤ 2 fold
